Data taken from ChEMBL document CHEMBL3272135, “Quantitative relationships between steroid structure and binding to putative progesterone receptors” (J Med Chem, 1977).

Key:
[1] = target: T1, Progesterone receptor (Ovis aries) (UniProt Q28590); experiment: Relative binding affinity to sheep progesterone receptor
T1 sequence (whole entry): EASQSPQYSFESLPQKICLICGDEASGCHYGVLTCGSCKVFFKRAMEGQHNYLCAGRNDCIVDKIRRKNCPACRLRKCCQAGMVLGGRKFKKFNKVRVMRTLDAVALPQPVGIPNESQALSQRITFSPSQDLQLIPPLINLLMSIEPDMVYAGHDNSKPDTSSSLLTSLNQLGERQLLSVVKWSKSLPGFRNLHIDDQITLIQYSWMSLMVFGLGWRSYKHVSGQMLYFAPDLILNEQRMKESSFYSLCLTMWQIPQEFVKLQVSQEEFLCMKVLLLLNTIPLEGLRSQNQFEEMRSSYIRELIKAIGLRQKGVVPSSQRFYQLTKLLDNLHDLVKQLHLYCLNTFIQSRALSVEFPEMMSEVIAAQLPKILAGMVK

[2] = target: T2, Progesterone receptor (Oryctolagus cuniculus) (UniProt P06186); experiment: Relative binding affinity to rabbit progesterone receptor
T2 sequence (whole entry): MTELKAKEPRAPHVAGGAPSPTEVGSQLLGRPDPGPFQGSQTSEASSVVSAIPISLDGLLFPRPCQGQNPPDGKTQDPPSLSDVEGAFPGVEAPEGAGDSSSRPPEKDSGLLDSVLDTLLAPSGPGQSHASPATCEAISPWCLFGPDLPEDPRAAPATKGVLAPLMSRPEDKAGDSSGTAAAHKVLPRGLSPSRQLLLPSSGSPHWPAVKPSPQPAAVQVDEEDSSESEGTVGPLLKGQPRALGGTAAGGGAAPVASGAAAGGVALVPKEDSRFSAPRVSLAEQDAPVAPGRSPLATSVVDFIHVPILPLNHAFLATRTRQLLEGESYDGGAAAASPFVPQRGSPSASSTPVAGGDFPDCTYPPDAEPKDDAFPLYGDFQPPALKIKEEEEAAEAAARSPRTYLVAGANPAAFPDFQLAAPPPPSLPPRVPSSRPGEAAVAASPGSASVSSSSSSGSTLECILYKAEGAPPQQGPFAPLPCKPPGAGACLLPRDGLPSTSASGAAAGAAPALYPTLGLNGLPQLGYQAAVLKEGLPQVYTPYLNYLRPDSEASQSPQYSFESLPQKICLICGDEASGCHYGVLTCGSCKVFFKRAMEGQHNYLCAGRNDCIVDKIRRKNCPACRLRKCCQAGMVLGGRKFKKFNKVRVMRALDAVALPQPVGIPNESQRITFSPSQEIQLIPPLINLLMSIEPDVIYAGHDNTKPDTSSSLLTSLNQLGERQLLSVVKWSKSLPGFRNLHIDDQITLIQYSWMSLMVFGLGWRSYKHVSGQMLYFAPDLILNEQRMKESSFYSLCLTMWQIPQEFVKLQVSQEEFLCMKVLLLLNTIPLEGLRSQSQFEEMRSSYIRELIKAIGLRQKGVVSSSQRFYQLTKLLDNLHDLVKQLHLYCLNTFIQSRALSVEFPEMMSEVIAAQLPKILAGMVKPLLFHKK

Cavia porcellus = species: Cavia porcellus; experiment: Relative binding affinity to guinea pig progesterone receptor
[3] = target: T3, Progesterone receptor (Homo sapiens) (UniProt P06401)
T3 sequence (whole entry): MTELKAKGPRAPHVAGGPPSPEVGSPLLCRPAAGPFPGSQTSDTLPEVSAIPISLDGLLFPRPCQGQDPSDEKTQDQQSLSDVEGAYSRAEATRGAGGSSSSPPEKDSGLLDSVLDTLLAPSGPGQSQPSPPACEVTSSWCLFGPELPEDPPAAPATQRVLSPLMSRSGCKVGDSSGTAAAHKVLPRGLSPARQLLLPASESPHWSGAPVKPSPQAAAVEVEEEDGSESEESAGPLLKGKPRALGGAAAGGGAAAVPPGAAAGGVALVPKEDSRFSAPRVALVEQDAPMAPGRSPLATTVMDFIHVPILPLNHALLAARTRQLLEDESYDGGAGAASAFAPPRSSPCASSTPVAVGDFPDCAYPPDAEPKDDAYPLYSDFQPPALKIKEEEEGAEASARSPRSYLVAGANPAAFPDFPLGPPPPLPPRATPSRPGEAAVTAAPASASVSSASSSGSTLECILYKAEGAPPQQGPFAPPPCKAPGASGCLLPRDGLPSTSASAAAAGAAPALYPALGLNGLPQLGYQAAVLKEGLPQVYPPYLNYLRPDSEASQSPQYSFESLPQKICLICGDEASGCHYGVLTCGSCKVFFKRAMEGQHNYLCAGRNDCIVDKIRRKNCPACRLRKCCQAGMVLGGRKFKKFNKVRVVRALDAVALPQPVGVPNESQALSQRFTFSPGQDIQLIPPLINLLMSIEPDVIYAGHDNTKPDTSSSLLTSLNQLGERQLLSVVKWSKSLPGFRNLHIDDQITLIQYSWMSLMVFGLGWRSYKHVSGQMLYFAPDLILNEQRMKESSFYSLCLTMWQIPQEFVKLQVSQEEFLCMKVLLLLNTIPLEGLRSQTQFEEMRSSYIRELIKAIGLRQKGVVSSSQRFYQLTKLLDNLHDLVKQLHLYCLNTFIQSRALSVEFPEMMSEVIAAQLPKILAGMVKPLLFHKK

SMILES	log(RBA) [1]	log(RBA) [2]	log(RBA) (Cavia porcellus)	log(RBA) [3]
CC(=O)[C@H]1CC[C@H]2[C@@H]3CCC4=CC(=O)CC[C@]4(C)[C@H]3CC(=O)[C@]12C	-1	-0.221	-0.52	-0.69
C#C[C@]1(O)CC[C@H]2[C@@H]3CC[C@H]4CC(=O)CC[C@@H]4[C@H]3CC[C@@]21C	1	1.23	0.3	1.23
C#C[C@]1(O)CC[C@H]2[C@@H]3CCC4=CCCC[C@@H]4[C@H]3CC[C@@]21C	0.602	1.11	-0.52	0.7
CC(=O)[C@H]1CC[C@H]2[C@@H]3CCC4=CC(=O)CC[C@]4(C)[C@H]3C(=O)C[C@]12C	-0.097	0.301	0	0
C#C[C@]1(O)CC[C@H]2[C@@H]3CCC4=CC(=O)CC[C@@H]4[C@H]3[C@@H](Cl)C[C@@]21C	2.06	2.32	1.48	2.11
CC[C@@H]1C[C@H]2[C@@H]3CCC4=CC(=O)CC[C@@H]4[C@H]3CC[C@]2(C)[C@H]1C(=O)CF	2.08	2.36	1.6	2.23
C[C@]12CC[C@H]3[C@@H](CCC4=CC(=O)CC[C@@H]43)[C@@H]1CC[C@@H]2O	1	1	1.6	1.14
C#C[C@]1(O)CC[C@H]2[C@@H]3CC[C@@H]4C[C@H](O)CC[C@@H]4[C@H]3CC[C@@]21C	-2	-1	-2	-1
CC(=O)[C@H]1CC[C@H]2[C@@H]3CC[C@@H]4CC(=O)CC[C@]4(C)[C@H]3CC[C@]12C	0.6	1.08	0.7	1.08
C[C@]12CC[C@H]3[C@@H](CCC4=CC(=O)CC[C@@]43C)[C@@H]1CC[C@@H]2C(=O)CO	1.4	1.4	1.15	1.23
C[C@]12CCC(=O)C=C1CC[C@@H]1[C@@H]2CC[C@]2(C)C(=O)CC[C@@H]12	-1	-1	-0.7	-1
CC(=O)[C@@]12[C@@H](C[C@H]3[C@@H]4CCC5=CC(=O)CC[C@]5(C)[C@H]4CC[C@@]31C)C2(C)C	1.9	2.38	1	2.11
C#C[C@]1(O)CC[C@H]2[C@@H]3CC=C4CCCC[C@@H]4[C@H]3CC[C@@]21C	-0.7	-0.523	-1.15	-1
CC(=O)[C@@]1(O)CC[C@H]2[C@@H]3CCC4=CC(=O)CC[C@]4(C)[C@H]3CC[C@@]21C	-0.3	-0.097	-0.52	-0.15
C[C@]12C[C@H](O)[C@H]3[C@@H](CCC4=CC(=O)CC[C@@]43C)[C@@H]1CC[C@@H]2C(=O)CO	0	0.02	0.447	0.3
C#C[C@]1(O)CC[C@H]2[C@@H]3CCC4=C(CCC(=O)C4)[C@H]3CC[C@@]21C	0.845	1.56	3	1.34

SMILES	log(RBA) [1]	log(RBA) [2]	log(RBA) (Cavia porcellus)	log(RBA) [3]
CC(=O)[C@H]1CC[C@H]2[C@@H]3CCC4=CC(=O)C=C[C@]4(C)[C@H]3CC[C@]12C	1.2	1.3	1.64	1.48
C[C@H](O)[C@H]1CC[C@H]2[C@@H]3CCC4=CC(=O)CC[C@]4(C)[C@H]3CC[C@]12C	0.7	0.778	0.6	1
CC(=O)[C@@]12O[C@@H]1C[C@H]1[C@@H]3CCC4=CC(=O)CC[C@]4(C)[C@H]3CC[C@@]12C	-0.52	-0.097	-0.046	0
CC[C@@H]1C[C@H]2[C@@H]3CCC4=CC(=O)CC[C@]4(C)[C@H]3CC[C@]2(C)[C@H]1C(C)=O	1.87	1.98	1.08	1.98
CC(=O)O[C@]1(C(C)=O)CC[C@H]2[C@@H]3C[C@H](C)C4=CC(=O)CC[C@]4(C)[C@H]3CC[C@@]21C	1.86	2	1.11	2.29
C#C[C@]1(O)CC[C@H]2[C@@H]3CCC4=CC(=O)CC[C@@H]4[C@H]3CC[C@@]21CC	2	2.62	1.43	2.22
CC(=O)[C@H]1CC[C@H]2[C@@H]3[C@H](C)CC4=CC(=O)CC[C@]4(C)[C@H]3CC[C@]12C	1.32	1.61	1.67	1.43
C#C[C@]1(O)CC[C@H]2[C@@H]3CCC4=C[C@@H](O)CC[C@@H]4[C@H]3CC[C@@]21C	1	1.3	-0.22	1.4
CC(=O)[C@H]1CC[C@H]2[C@@H]3CCC4=CC(=O)CC[C@]4(C)[C@H]3[C@H](O)C[C@]12C	-0.15	0.301	-0.097	0.48
C#C[C@]1(O)CC[C@H]2[C@@H]3[C@H](C)CC4=C(CCC(=O)C4)[C@H]3CC[C@@]21C	0.7	0.903	-0.4	0.78
C#C[C@]1(O)CC[C@H]2[C@@H]3CC[C@@H]4C[C@@H](O)CC[C@@H]4[C@H]3CC[C@@]21C	-0.7	-1	-1.09	-0.52
CC[C@@H]1C[C@H]2[C@@H]3CCC4=CC(=O)CC[C@@H]4[C@H]3CC[C@]2(C)[C@H]1C(=O)CO	1.98	2.44	1.4	2.16
CC(=O)O[C@]1(C(C)=O)CC[C@H]2[C@@H]3CCC4=CC(=O)CC[C@]4(C)[C@H]3CC[C@@]21C	1.6	1.72	-0.7	1.83
CC(=O)[C@H]1CC[C@H]2[C@@H]3CC[C@H]4CC(=O)CC[C@]4(C)[C@H]3CC[C@]12C	1.48	1.74	1.4	1.48
C#C[C@]1(O)CC[C@H]2[C@@H]3CC[C@H]4C[C@H](O)CC[C@@H]4[C@H]3CC[C@@]21C	-1.52	-1	-2	-1
CC(=O)[C@H]1CC[C@H]2[C@@H]3CCC4=CC(=O)CC[C@]4(C)[C@H]3CC[C@]12C	2	2	2	2
